Data from patent US20110059969A1, “PIPERAZINES AS ANTI-OBESITY AGENTS” (ASTRAZENECA AB, priority 2007, published 2011).

Columns and labels:
JEG-3 cells [1] = experiment: [3H]-thymidine incorporation by JEG-3 cells (JEG-3 protocol); type: cell-based; conditions: FIG. 5
Description: In JEG-3 cells (choriocarcinoma cell line) leptin is able to stimulate proliferation up to 3 fold (Biol. Reprod. (2007) 76: 203-10). […] The radioactivity incorporated by the cells is an index of their proliferative activity and is measured in counts per minute (CPM) with a liquid scintillation beta counter.
This finding can be applied to test whether a compound is able to either reproduce the effect of leptin on cell proliferation (leptin receptor agonist mimetic) (i.e., a given compound will cause an increase in incorporated [^3H]-Thymidine by the cells) or to inhibit the effect of leptin (antagonistic effect) by preventing the leptin-mediated increase in [^3H]-thymidine incorporation.
This approach has the advantage of using a non-recombinant system and has reasonable reproducibility and robustness.

JEG-3 cells [2] = conditions: Biol. Reprod. (2007) 76: 203-10; cited from earlier work

For “Leptin: hormone synthesized in fat cells that is believed to act in the hypothalamus to reduce food intake and body weight”, which EC50 (JEG-3 cells [1]; JEG-3 cells (choriocarcinoma cell line), read-out: EC50 of concentration-dependent increase in [3H]-thymidine incorporation) is on record?
Its EC50 is 2.1 nM.

And the “concentration giving maximal effect on [3H]-thymidine incorporation” value (JEG-3 cells [1]; JEG-3 cells)?
Its value is 100 nM.

What about the stimulation of proliferation (JEG-3 cells [2]) of the same substance?
Its stimulation of proliferation is “up to 3 fold”.
